Test results published in paper PMC3491036 (PLoS ONE, 2012).
Read-outs that look alike come from different tables or passages of the source.

How the values were obtained:
XA binding sites = assay: Displacement of [3H]XA specific binding by competitors; parameters: species or system rat; conditions: for displacement of radioactive XA specific binding: compound at 200 µM, displacement by 200 µM XA set at 100%
Protocol: Membranes (from brain or cell cultures) were incubated for 30 min at 0°C in 50 mM Pipes buffer, pH 7.4 in the presence of [^3H]-XA (2 µCi per µmole total XA at various concentrations). Non-specific binding was determined with 1 mM non-radioactive XA in the medium. Bound from free ligand was separated by rapid filtration on 25 mm Whatman GF/B filters and washing with incubation buffer (3×3 ml at 0°C). Radioactivity on filters was measured by liquid scintillation counting.
Two approaches were used for screening the pharmacological properties of XA specific binding. First, we tested at rather high concentration (200 µM) a battery of putative ligands for these sites. […] The fact that glutamate displaced not more than 10% of radioactive XA eliminates possible binding of XA on glutamate receptors under our conditions.

[1] = test system: differentiated NCB-20 cells; assay: Cell-attached patch-clamp recording; format: cell-based, mouse neuroblastoma / Chinese hamster brain cell hybrid
Protocol: (§1) NCB-20 cells were plated at low density (10^4 cells/dish) in 35-mm dishes and differentiated with 1 mM db-cAMP. The culture medium was replaced twice a week and the cells were used after 5 days in culture. Cells were recorded either in cell-attached or whole-cell configuration of the patch-clamp technique using an Axopatch-B200 amplifier (Axon Instruments, CA, USA) in its voltage-clamp mode. […] Junction potentials were calculated using the routine procedure in the Clampex software (Axon instruments, CA, USA) and taken into account for current-voltage (I–V) relationships and reversal potential calculation according to the recording configuration.
For cell-attached recording the pipette was filled with a medium containing (in mM): N-Methyl-D-Glucamine (NMDG) chloride 140, KCl 1, MgCl2 10, EGTA 5, TEA-Cl 15, HEPES 10, pH = 7.4. To maintain the cell membrane potential close to zero, the recorded cells were continuously superfused with a bath solution containing (in mM): KCl 140, NaCl 1, MgCl2 1, CaCl2 0.5, EGTA-K 1, HEPES 10, D-glucose 10, pH = 7.4. […] Drugs were dissolved in DMSO and diluted in control solutions such that DMSO in the applied solution was diluted by a factor of at least 10^4. Drugs were applied to the recorded cells through a multi-barrel perfusion system, the rapid solution exchanger RCS-160 (Bio-Logic, Grenoble, France). […] The first tube was filled with control solution and was used to maintain a continuous superfusion of the recorded cell between applications. The selected tube was placed in front of the cell by axial rotation of calibrated angles and the application started when the selected tube takes place in front of the cell.
(§2) Data were analyzed offline using the clampfit routine of the Pclamp software package. The given results are means±SEM and statistical significance of the difference between means was determined using one way ANOVA followed by Dunnett's Multiple Comparison test.

NCB-20 cells = assay: Fluo-4 monitoring of [Ca2+]i changes; format: cell-based, mouse neuroblastoma / Chinese hamster brain cell hybrid
Protocol: The method of cellular calcium measurement used was as described previously. Briefly, NCB-20 cells were plated in glass-bottomed culture dishes and incubated at 37°C for four days. […] Then the cells were washed with Krebs for 30 min at room temperature in the dark. All settings of the laser (Argon-Krypton laser, turned to 488 nm), optical filter (BF 530/30) and microscope (Leica TCS-SP confocal inverted microscope) as well as data acquisition were controlled by the LCS (Leica Confocal System) software.
Images were recorded at a frequency of 0.1 Hz. Analysis was performed by defining regions of interest (ROI) in the first image. Values are expressed as the percentage of fluorescence change with respect to control and calculated as F/F 0 (%) (where F is the fluorescence intensity at a given time and F 0 the basal fluorescence intensity at the beginning of the experiment).
The cells were continuously superfused with normal Krebs medium and transiently submitted to the tested drug using a peristaltic pump with a flow rate of 1 ml/min. For each analyzed cell, the mean and the standard deviation (SD) of the F/F 0 of fluorescence were measured during 1–2 min before (base line) and after (signal) drug application and compared. Statistical significance of the difference between means was determined using one way ANOVA followed by Dunnett's Multiple Comparison Test for repeated measurements on absolute levels of fluo-4 fluorescence.

[2] = test system: XA binding sites on crude synaptosomal membranes from rat brain; assay: [3H]-XA saturation and kinetic binding on crude synaptosomal membranes from rat brain
Protocol: Brains were rapidly extracted from adult male Wistar rats killed by decapitation after being stunned. All the following procedures were done with buffers cooled at 0°C. Brains were homogenized with a motor driven Teflon/glass apparatus in 10 vol (W/V) of sucrose 0.32 M containing potassium phosphate buffer pH 7.2 and 2 mM EDTA. After centrifugation at 1,500 g for 10 min to remove the crude nuclear fraction, the supernatant was spun at 35,000 g for 20 min. The pellet obtained was resuspended in lysis buffer (2 mM EDTA/water pH 6.0 at 0°C, spun at 100,000 g for 20 min). After washing the pellet with potassium phosphate buffer 50 mM, pH 6.0, the crude membrane fraction was directly used for further experiments or stored at −80°C.
(§3) Bound from free ligand was separated by rapid filtration on 25 mm Whatman GF/B filters and washing with incubation buffer (3×3 ml at 0°C). Radioactivity on filters was measured by liquid scintillation counting.

[3] = test system: XA binding sites on IMR-32 neuroblastoma cells; assay: [3H]-XA saturation binding on IMR-32 neuroblastoma cell membranes; parameters: species or system human; conditions: IMR-32 membranes, read-out: dissociation constant (Kd)
Protocol: Cultures were maintained for one week at 37°C in the presence of CO2 (5%).
(§4) Neurons were scraped into potassium phosphate buffer 50 mM, EDTA 2 mM, pH 6.0 at 0°C. After centrifugation at 2,000 g for 3 min to eliminate nuclei and large fragments, the supernatant was spun down at 15,000 g for 10 min; the pellet was washed with the same buffer and directly used for binding experiments.
as §3

[4] = test system: XA binding sites on NCB-20 neuroblastoma cells; assay: [3H]-XA saturation binding on NCB-20 neuroblastoma cell membranes; parameters: species or system mouse neuroblastoma / Chinese hamster brain cell hybrid; conditions: NCB-20 membranes, read-out: dissociation constant (Kd)
Protocol: as §4, §3

[5] = test system: 75 transmembrane and soluble receptors, ion channels and monoamine transporters; assay: Cerep high-throughput profile screening; format: binding; conditions: XA at 10 µM
Protocol: Secondly, to extend the pharmacological profile of XA, this compound was tested on high-throughput profile screening which involved a collection of 75 transmembrane and soluble receptors, ion channels and monoamine transporters (Cerep, France Laboratories, Poitiers). XA was tested on these collections of proteins at 10 µM concentration.

[6] = test system: rat brain synaptosomal membranes; conditions: read-out: EC50 of GTP-γ-S binding; XA 0.5 to 50 µM, 5 µM GDP, 20 mM MgCl2
Protocol: The Scintillation Proximity Assay (SPA) of Amersham was used. […] Brain synaptosomal membranes were thus incubated in assay buffer (pH 7.4) containing 20 mM HEPES, 100 mM NaCl, 20 mM MgCl2 with 0.3 nM [^35S]GTP-γ-S and 5 µM GDP for 30 min at room temperature. Non-specific binding was determined in the presence of 200 µM GTP. WGA SPA beads were added and the mixture was incubated at room temperature for a further 30 min. The plates were centrifuged at 1,200 g for 5 min and SPA cpm were determined by scintillation counting.

[7] = test system: differentiated NCB-20 cells; assay: cells
Protocol: as §1, §2

various cell cultures = conditions: concentration of 10 µM; cited from earlier work
[8] = peripheral administration; cited from earlier work
[9] = frequency histogram of the illustrated XA response
[10] = illustrated response to 10 µM XA, NMDG-Cl pipette, ramp protocol

## NCCCC(=O)O [GABA]
XA binding sites
  displacement of radioactive XA specific binding: very low potency

## O=C(O)c1cc(O)c2c(Cl)cc(Cl)c(O)c2n1 [NCS-482]
XA binding sites
  IC50: 0.35 µM
[1]
  functional properties in patch-clamp experiments: agonistic

## Nc1cccc2c(O)cc(C(=O)O)nc12 [NCS-486]
XA binding sites
  IC50: 14.6 µM
[1]
  functional properties in patch-clamp experiments: antagonistic
[1]; NCS-486 20 µM co-applied with 5 µM XT-21
  reduction of the agonist-induced current-response: 86.1±5.0%
[1]; NCS-486 20 µM co-applied with 10 µM XA
  reduction of the agonist-induced current-response: 88.3±3.8%
[1]; NCS-486 20 µM co-applied with 18 µM NCS-482
  reduction of the agonist-induced current-response: 88.7±3.2%
[1]; NCS-486 20 µM, 6 cells tested
  effect when applied alone: did not have any effect by itself
NCB-20 cells; 100 µM NCS-486 applied alone, 5 min
  fluo-4 fluorescence (F/F0): 83.9±2.7%
NCB-20 cells; 100 µM NCS-486 with 25 µM XA, 5 min
  fluo-4 fluorescence (F/F0): 86.9±0.7%

## O=C(O)c1cc(O)c2cccc(O)c2n1 [XA, Xanthurenic acid]
[2]; [3H]-XA 0.2 µM, pH 7.4, 0°C
  Kob: 1.44 min⁻¹
[2]; from Kob and Koff, read-out: calculated Kd (from rate constants)
  Kd: 1.4 µM
[2]; saturation experiments, crude brain synaptosomal membranes, pH 7.4, 0°C, read-out: dissociation constant (Kd)
  Kd: 0.74 µM
[3]
  Kd: 0.75 µM
[4]
  Kd: 1.3 µM
XA binding sites
  IC50: 0.3 µM
[5]
  competition on the binding of specific ligands of the 75 proteins: No significant competitive properties
  effect on adenosine, benzodiazepine, dopamine, GABA, canabinoid, histamine, muscarinic, opioid, purinergic and serotonin receptors: no effect
[6]
  EC50: 2 ± 1.9 µM
[7]; Hill fit of dose-response
  Hill coefficient: 3.5
  maximal conductance: 12.5 nS
[7]; XA 1 to 30 µM, whole-cell
  cells tested showing an XA induced response: about 71%
[7]; high chloride pipette medium
  reversal potential of XA-induced current: −3.3±4.0 mV
[7]; low chloride pipette medium
  reversal potential of XA-induced current: −3.8±2.5 mV
[7]; read-out: EC50 of XA activated conductance
  EC50: 11.7 ± 2.2 µM
[1]; all XA responses, mean ± SEM
  Er1, global mean value: −32.2±4.0 mV
  Er2, global mean value: −13.9±1.1 mV
  Er3, global mean value: −1.0±0.6 mV
  Er4, global mean value: 11.5±0.8 mV
  Er5, global mean value: 31.1±2.0 mV
[1]; [9]
  Er1, mean of Gaussian fit: −23.2 mV
  Er2, mean of Gaussian fit: −9.6 mV
  Er3, mean of Gaussian fit: 0.8 mV
  Er4, mean of Gaussian fit: 12.6 mV
  Er5, mean of Gaussian fit: 20.3 mV
[1]; [10]
  reversal potential (Er), position 1 (initial value): −9 mV
  reversal potential (Er), position 2: about 14 mV
  reversal potential (Er), position 3: ~25 mV
  reversal potential (Er), position 4: ~−1 mV
  reversal potential (Er), position 5: ~−26 mV
NCB-20 cells; 10 µM XA
  persistence of signal before returning to basal levels: about 5 min
  start of signal after XA application: about 1 min
NCB-20 cells; 10 µM XA, 6 min application
  intensity of fluo-4 signal above basal levels: 60–80%
NCB-20 cells; 25 µM XA after 5 min washout of NCS-486
  fluo-4 fluorescence (F/F0): 134.9±6.5%
NCB-20 cells; XA 1 to 10 µM
  mean apparent maximum of the response (F/F0): about 157±3%
NCB-20 cells; read-out: EC50 of first (activation) phase of Ca2+ response
  EC50: 1.4 µM
Various cell cultures
  toxicity in cell cultures: apoptotic-like cell death
[8]
  brain penetration: penetrates the brain freely

## O=C(O)c1cc(O)c2cc(-c3ccccc3)cc(O)c2n1 [XT-21]
XA binding sites
  IC50: 4.6 µM
[1]
  functional properties in patch-clamp experiments: agonistic
[1]; XT-21 5 µM, cell-attached
  response amplitude relative to 10 µM XA: about 2.5 fold
  response amplitude relative to 18 µM NCS-482: ~1.5 fold

## O=C(O)c1cc(=O)c2ccccc2[nH]1 [kynurenic acid]
XA binding sites
  displacement of radioactive XA specific binding: 30%

## O=C(O)c1ccccn1 [picolinic acid]
XA binding sites
  IC50: 41 ± 5 µM
  displacement of radioactive XA specific binding: 60%

## O=C(O)c1cccnc1C(=O)O [quinolinic acid]
XA binding sites
  displacement of radioactive XA specific binding: 40%
